According to ChEMBL document CHEMBL5104197, “Structure-Based Optimization of Coumestan Derivatives as Polyketide Synthase 13-Thioesterase(Pks13-TE) Inhibitors with Improved hERG Profiles for Mycobacterium tuberculosis Treatment” (J Med Chem, 2022):
In brackets after ≈: the same amount, converted by molar mass.

How the values were obtained:
[1] = test system: Polyketide synthase Pks13 (Mycobacterium tuberculosis (strain ATCC 25618 / H37Rv)), I6X8D2 [N1640S]; assay: Binding affinity to Mycobacterium tuberculosis Pks13-TE N1640S mutant expressed in Escherichia coli BL21(DE3) pLysS assessed as change in melting temperature at 1:5 compound to protein ratio by nanoDSF thermal stability analysis
[2] = test system: Polyketide synthase Pks13 (Mycobacterium tuberculosis (strain ATCC 25618 / H37Rv)), I6X8D2 [N1640K]; assay: Binding affinity to Mycobacterium tuberculosis Pks13-TE N1640K mutant expressed in Escherichia coli BL21(DE3) pLysS assessed as change in melting temperature at 1:5 compound to protein ratio by nanoDSF thermal stability analysis
[3] = test system: Polyketide synthase Pks13 (Mycobacterium tuberculosis (strain ATCC 25618 / H37Rv)), I6X8D2 [N1640S]; assay: Binding affinity to Mycobacterium tuberculosis Pks13-TE N1640S mutant expressed in Escherichia coli BL21(DE3) pLysS assessed as change in melting temperature at 1:10 compound to protein ratio by nanoDSF thermal stability analysis
[4] = test system: Polyketide synthase Pks13 (Mycobacterium tuberculosis (strain ATCC 25618 / H37Rv)), I6X8D2 [N1640K]; assay: Binding affinity to Mycobacterium tuberculosis Pks13-TE N1640K mutant expressed in Escherichia coli BL21(DE3) pLysS assessed as change in melting temperature at 1:10 compound to protein ratio by nanoDSF thermal stability analysis
[5] = test system: Mycobacterium tuberculosis; format: functional, Vero; settings: R506, 168 h, time 7 day
[6] = test system: Mycobacterium tuberculosis; format: functional, Vero; settings: KZN494, 168 h, time 7 day
[7] = test system: Mycobacterium tuberculosis; format: functional, Vero; settings: TF274, 168 h, time 7 day
[8] = test system: Mycobacterium tuberculosis; format: functional, Vero; settings: V2475, 168 h, time 7 day

Structure (SMILES) | ΔTm [1] | ΔTm [2] | ΔTm [3] | ΔTm [4] | MIC90 [5] | MIC90 [6] | MIC90 [7] | MIC90 [8]
O=c1oc2cc(O)ccc2c2oc3ccc4c(c3c12)CN(CC1CC1)CO4 | 8.6 °C | 0.2 °C | 9.3 °C | 0.1 °C | – | – | – | –
COc1ccc2c(c1)oc(=O)c1c2oc2ccc(O)c(CN3CCC(F)(F)CC3)c21 | 1.9 °C | – | 1.7 °C | – | – | – | – | –
O=c1oc2cc(O)ccc2c2oc3ccc(O)c(CN4CCC(F)CC4)c3c12 | 8.7 °C | 1.5 °C | 9.6 °C | 1 °C | 0.0625 µg/mL (≈ 0.163 µM) | 0.0625 µg/mL (≈ 0.163 µM) | 0.0625 µg/mL (≈ 0.163 µM) | 0.125 µg/mL (≈ 0.326 µM)
O=c1oc2cc(O)ccc2c2oc3ccc(O)c(CN4CCCCC4)c3c12 | 11.4 °C | 0.8 °C | 10.5 °C | 0.9 °C | – | – | – | –
O=c1oc2cc(O)ccc2c2oc3ccc4c(c3c12)CN(C1CCCC1)CO4 | 10.1 °C | 0.3 °C | 10.9 °C | 0.1 °C | 0.0039 µg/mL (≈ 0.0103 µM) | 0.0039 µg/mL (≈ 0.0103 µM) | 0.0039 µg/mL (≈ 0.0103 µM) | 0.0039 µg/mL (≈ 0.0103 µM)
O=c1oc2cc(O)ccc2c2oc3ccc(O)c(CN4CC[C@H](F)C4)c3c12 | 6.9 °C | – | 7.9 °C | – | – | – | – | –
